In PMC5635798, “Alteration to Dopaminergic Synapses Following Exposure to Perfluorooctane Sulfonate (PFOS), in Vitro and in Vivo” (Medical Sciences, 2016):

Target: T1, vesicular monoamine transporter 2 (VMAT2) (Homo sapiens, UniProt Q05940)
T1 construct: gene SLC18A2; human VMAT2 stably expressed in HEK293 cells (HEK-hVMAT2), pcDNA3.1
Assay: inhibition of vesicular 3H-dopamine uptake in HEK-hVMAT2 cell fractions
Type: biochemical

T1 sequence (Q05940 whole entry): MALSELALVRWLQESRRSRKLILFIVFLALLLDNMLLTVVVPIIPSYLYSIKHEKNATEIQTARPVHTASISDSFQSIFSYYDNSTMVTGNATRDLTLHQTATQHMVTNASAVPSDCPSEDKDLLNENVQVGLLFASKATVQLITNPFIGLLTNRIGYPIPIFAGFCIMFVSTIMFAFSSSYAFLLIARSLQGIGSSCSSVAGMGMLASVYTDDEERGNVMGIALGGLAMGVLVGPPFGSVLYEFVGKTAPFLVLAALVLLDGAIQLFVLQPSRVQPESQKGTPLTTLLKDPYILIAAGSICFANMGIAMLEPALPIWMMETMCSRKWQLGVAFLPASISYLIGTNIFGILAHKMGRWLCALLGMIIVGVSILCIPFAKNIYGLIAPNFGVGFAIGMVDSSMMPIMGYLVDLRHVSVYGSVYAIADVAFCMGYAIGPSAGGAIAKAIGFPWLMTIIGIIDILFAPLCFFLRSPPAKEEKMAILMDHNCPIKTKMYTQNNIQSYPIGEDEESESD

O=S(=O)(O)C(F)(F)C(F)(F)C(F)(F)C(F)(F)C(F)(F)C(F)(F)C(F)(F)C(F)(F)F [PFOS]
IC50: 4.56 µM
